Measurements: article PMC8654043 (Chemical Science, 2021)

Columns and labels:
[1] = biological target: T1, caspase-9 (Homo sapiens, UniProt P55211); format: biochemical
T1 sequence (P55211 1-416): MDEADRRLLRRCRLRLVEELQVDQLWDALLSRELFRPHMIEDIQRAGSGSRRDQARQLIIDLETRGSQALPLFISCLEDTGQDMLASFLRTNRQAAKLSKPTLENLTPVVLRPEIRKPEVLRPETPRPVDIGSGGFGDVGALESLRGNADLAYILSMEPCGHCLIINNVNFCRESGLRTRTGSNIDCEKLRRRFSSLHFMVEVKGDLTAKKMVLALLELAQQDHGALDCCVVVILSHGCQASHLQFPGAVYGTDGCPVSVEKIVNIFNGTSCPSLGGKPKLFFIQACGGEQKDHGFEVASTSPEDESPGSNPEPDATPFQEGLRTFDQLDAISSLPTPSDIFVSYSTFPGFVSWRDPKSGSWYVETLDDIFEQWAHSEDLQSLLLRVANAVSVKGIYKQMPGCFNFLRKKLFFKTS

[2] = biological target: caspase-8 (Homo sapiens, UniProt Q14790); format: biochemical
caspase-8, sequence (Q14790 217-374): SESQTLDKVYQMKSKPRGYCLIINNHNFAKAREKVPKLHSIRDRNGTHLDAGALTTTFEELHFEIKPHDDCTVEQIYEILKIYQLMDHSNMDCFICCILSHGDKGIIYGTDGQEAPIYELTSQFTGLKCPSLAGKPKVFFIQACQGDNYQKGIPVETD
caspase-8, sequence (Q14790 385-479): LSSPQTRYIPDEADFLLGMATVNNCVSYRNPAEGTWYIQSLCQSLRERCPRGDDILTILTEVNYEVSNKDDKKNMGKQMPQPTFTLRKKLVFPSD

`CC(C)[C@H](NC(=O)c1ccc2ccccc2n1)C(=O)N[C@@H](CC(=O)O)C(=O)COc1c(F)cccc1F` [Q-VD-OPh] showed an IC50 [1] of 310 nM and an IC50 [2] of 280 nM.
